Measured values taken from patent JP2014001205A, “動物の寄生虫防除剤” (Nissan Chemical Corp, priority 2012, dated 2014).

The compounds below were run on American dog tick (Dermacentor variabilis) first nymphs [American dog tick(Dermacentor variabilis)第1若虫] (assay: Efficacy test against American dog tick (Test Example 2), glass container film contact). Details: 96 h, 10μg/cm2, 5 first nymphs (mixed sex), 25℃, 4 days, duplicate, read-out: efficacy (number with abnormal behaviour due to compound / number released × 100).
Assay type: in vivo

Row | SMILES | pest or weed control at 10 µg/cm2
1 | CON=C(COCC(F)(F)F)C(=O)N(C)c1cn(-c2cccnc2)nc1Cl [1−273] | ≥ 80%
2 | Cc1nn(-c2cccnc2)cc1N(C)C(N)=O [1−094] | ≥ 80%
3 | CCSCC(=O)N(CC)c1cn(-c2cccnc2)nc1Cl [1−107] | ≥ 80%
4 | CCSC(C)C(=NOC)Nc1cn(-c2cccnc2)nc1Cl (stereo not drawn) [1−356, N−{3−クロロ−1−(ピリジン−3−イル)−1H−ピラゾール−4−イル}−2−(エチルチオ)−N’−メトキシプロパンイミダミド] | ≥ 80%
5 | CCN(C(=O)CNC(=O)C(F)(F)F)c1cn(-c2cccnc2)nc1Cl [1−409] | ≥ 80%
6 | CSCCC(=O)Nc1cnn(-c2cccnc2)c1 [1−006] | ≥ 80%
7 | CCN(C(=O)NCCSC)c1cn(-c2cccnc2)nc1C [1−060] | ≥ 80%
8 | CSCCC(=O)N(C)c1cn(-c2cccnc2)nc1C [1−018, N−メチル−N−{3−メチル−1−(ピリジン−3−イル)−1H−ピラゾール−4−イル}−3−(メチルチオ)プロパンアミド] | ≥ 80%
9 | Cc1nn(-c2cccnc2)cc1NC(=O)NCC(F)(F)F [1−032] | ≥ 80%
10 | CSCCC(=O)Nc1cn(-c2cccnc2)nc1Cl [1−058] | ≥ 80%
11 | CSCC(=O)N(C)C(C)=Nc1cn(-c2cccnc2)nc1C [3−004, N−メチル−N−[1−{3−メチル−1−(ピリジン−3−イル)−1H−ピラゾール−4−イルイミノ}エチル]−2−(メチルチオ)アセタミド] | ≥ 80%
12 | CCON=C(C[S+](C)[O-])C(=O)N(CC)c1cn(-c2cccnc2)nc1Cl (stereo not drawn) [1−208] | ≥ 80%
13 | CC(C)(C)OC(=O)Nc1cn(-c2cccnc2)nc1Br [1−188, tert−ブチル 3−ブロモ−1−(ピリジン−3−イル)−1H−ピラゾール−4−イルカーバメート] | ≥ 80%
14 | CCSC(C)C(=S)Nc1cnn(-c2cccnc2)c1 (stereo not drawn) [1−480] | ≥ 80%
15 | CCN(C(=O)C(C[S+](C)[O-])OC)c1cn(-c2cccnc2)nc1Cl (stereo not drawn) [1−199] | ≥ 80%
16 | CCCON=C(CSC)C(=O)N(CC)c1cn(-c2cccnc2)nc1Cl [1−173] | ≥ 80%
17 | CCN(C(C)=O)c1cn(-c2cccnc2)nc1Cl [1−149] | ≥ 80%
18 | CCON=C(CSC)C(=O)N(CC)c1cn(-c2cccnc2)nc1Cl (single isomer, unassigned) [1−157] | ≥ 80%
19 | CCN(C(=O)C(C)CS(C)(=O)=O)c1cn(-c2cccnc2)nc1C (stereo not drawn) [1−490] | ≥ 80%
20 | CCN(C(=O)CC[S+](C)[O-])c1cn(-c2cccnc2)nc1C (stereo not drawn) [1−110] | ≥ 80%
21 | CCN(C(=O)OC(C)(C)C)c1cn(-c2cccnc2)nc1Cl [1−056, tert−ブチル 3−クロロ−1−(ピリジン−3−イル)−1H−ピラゾール−4−イル(エチル)カーバメート] | ≥ 80%
22 | O=C(NCC(F)(F)F)Nc1cn(-c2cccnc2)nc1Cl [1−158] | ≥ 80%
23 | CCN(C(=O)CC[S+]([O-])CC(F)(F)F)c1cn(-c2cccnc2)nc1Cl (stereo not drawn) [1−154] | ≥ 80%
24 | CCCN(C(=O)CCSC)c1cn(-c2cccnc2)nc1Cl [1−063] | ≥ 80%
25 | CCN(C(=O)OC(C)(C)C)c1cn(-c2cccnc2)nc1OC [1−395] | ≥ 80%
26 | CCN(C(=O)CCSC(C)C)c1cn(-c2cccnc2)nc1Cl [1−123] | ≥ 80%
27 | CCN(C(=O)CC(CSC)=NOC)c1cn(-c2cccnc2)nc1Cl [1−367] | ≥ 80%
28 | CCC(CSC)C(=O)N(C)c1cn(-c2cccnc2)nc1Cl (stereo not drawn) [1−084] | ≥ 80%

Row | SMILES | pest or weed control at 10 µg/cm2
29 | CSCCN(C(C)=O)c1cn(-c2cccnc2)nc1Cl [1−186] | ≥ 80%
30 | CCCCON=C(CSC)C(=O)N(CC)c1cn(-c2cccnc2)nc1Cl [1−184] | ≥ 80%
31 | CON=C(CSC)C(=O)N(C)c1cn(-c2cccnc2)nc1Cl (single isomer, unassigned) [1−142] | ≥ 80%
32 | CC(C)(C)OC(=O)N(CC1CC1)c1cn(-c2cccnc2)nc1Cl [1−343] | ≥ 80%
33 | CC(=O)N(C)c1cn(-c2cccnc2)nc1Cl [1−148] | ≥ 80%
34 | COCN(C(=O)C(C)CSC)c1cn(-c2cccnc2)nc1Cl (stereo not drawn) [1−086] | ≥ 80%
35 | CCN(C(=O)COC(C)(C)C)c1cn(-c2cccnc2)nc1Cl [1−439] | ≥ 80%
36 | CCN(C(=O)CCSCC(F)(F)F)c1cn(-c2cccnc2)nc1Cl [1−124] | ≥ 80%
37 | CCN(C(=O)CCC(F)=C(F)F)c1cn(-c2cccnc2)nc1Cl [1−418] | ≥ 80%
38 | CCN(C(=O)C(C)SC(C)C)c1cn(-c2cccnc2)nc1Cl (stereo not drawn) [1−248] | ≥ 80%
39 | CCN(C(=O)C(CSC)c1ccccc1)c1cn(-c2cccnc2)nc1Cl (stereo not drawn) [1−216] | ≥ 80%
40 | CC(C)(C)OC(=O)N(CC(F)(F)F)c1cn(-c2cccnc2)nc1Cl [1−324] | ≥ 80%
41 | C=CC(=O)N(CC)c1cn(-c2cccnc2)nc1Cl [1−152, N−{3−クロロ−1−(ピリジン−3−イル)−1H−ピラゾール−4−イル}−N−エチルアクリルアミド] | ≥ 80%
42 | CSCC(C)(C)C(=O)N(C)c1cn(-c2cccnc2)nc1Cl [1−134, N−{3−クロロ−1−(ピリジン−3−イル)−1H−ピラゾール−4−イル}−N,2,2−トリメチル−3−(メチルチオ)プロパンアミド] | ≥ 80%
43 | CCN(C(=O)CC(=NOC)C(F)(F)F)c1cn(-c2cccnc2)nc1Cl [1−303] | ≥ 80%
44 | C=CCON=C(CSC)C(=O)N(CC)c1cn(-c2cccnc2)nc1Cl [1−222] | ≥ 80%
45 | CCN(C(=O)CCS(=O)(=O)CC(F)(F)F)c1cn(-c2cccnc2)nc1Cl [1−155] | ≥ 80%
46 | CCN(C(=O)C(CSC)=NOC(C)C)c1cn(-c2cccnc2)nc1Cl [1−172] | ≥ 80%
47 | CCCC(=O)N(CC)c1cn(-c2cccnc2)nc1Cl [1−151] | ≥ 80%
48 | CCN(C(=O)CCSC)c1cnn(-c2cccnc2)c1 [1−044] | ≥ 80%
49 | CCN(C(=O)CCSC)c1cn(-c2cccnc2)nc1Cl [1−033] | ≥ 80%
50 | C=CCN(C(=O)CCSC)c1cn(-c2cccnc2)nc1Cl [1−064] | ≥ 80%
51 | CCN(C(=O)COCSC)c1cn(-c2cccnc2)nc1Cl [1−067] | ≥ 80%
52 | CCCN(C(=O)C(C)CSC)c1cn(-c2cccnc2)nc1Cl (stereo not drawn) [1−066] | ≥ 80%
53 | C=C1CCN(c2cn(-c3cccnc3)nc2Cl)C1=O [1−133, 1−{3−クロロ−1−(ピリジン−3−イル)−1H−ピラゾール−4−イル}−3−メチレンピロリジン−2−オン] | ≥ 80%
54 | CC(C)(C)OC(=O)Nc1cn(-c2cccnc2)nc1Cl [1−046, tert−ブチル 3−クロロ−1−(ピリジン−3−イル)−1H−ピラゾール−4−イルカーバメート] | ≥ 80%
55 | CS(=O)(=O)C1CCCN(c2cnn(-c3cccnc3)c2)C1=O (stereo not drawn) [1−035] | ≥ 80%

Same assay, conditions: 96 h, read-out: efficacy (number with abnormal behaviour due to compound / number released × 100)

Row | SMILES | pest or weed control at 10 µg/cm2
56 | CCN(C(=O)C(CSC)=NOCC[Si](C)(C)C)c1cn(-c2cccnc2)nc1Cl [1−268] | ≥ 80%

What follows are compounds tested on cat flea (Ctenocephalides felis) adults [ネコノミ(Ctenocephalides felis)成虫] (assay: Efficacy test against cat flea (Test Example 1), glass container film contact). Details: 96 h, 10μg/cm2, 5 adults (mixed sex), 25℃, 4 days, duplicate, read-out: efficacy (number of insects with abnormal behaviour due to compound / number released × 100).
Assay type: in vivo

Row | SMILES | pest or weed control at 10 µg/cm2
57 | CCOCC(=O)N(CC)c1cn(-c2cccnc2)nc1Cl [1−220] | ≥ 80%
58 | CN(C(=O)NCC(F)(F)F)c1cn(-c2cccnc2)nc1Br [1−586] | ≥ 80%
59 | CC(C)(C)OC(=O)N(CC#N)c1cn(-c2cccnc2)nc1Cl [1−522] | ≥ 80%
60 | CCN(C(=O)CSCC(OC)OC)c1cn(-c2cccnc2)nc1Cl [1−434] | ≥ 80%
61 | CCN(C(=O)NCC(F)(F)F)c1cn(-c2cccnc2)nc1Br [1−587] | ≥ 80%
62 | CCN(C(=O)C(C)SC(C)=O)c1cn(-c2cccnc2)nc1Cl (stereo not drawn) [1−245] | ≥ 80%
63 | CCc1nn(-c2cccnc2)cc1N(CC)C(=O)C(C)CSC (stereo not drawn) [1−484] | ≥ 80%
64 | CC(CS(C)(=O)=O)C(=O)Nc1cn(-c2cccnc2)nc1Cl (stereo not drawn) [1−494] | ≥ 80%
65 | CCN(C(=O)[C@H](C)CSC)c1cn(-c2cccnc2)nc1Cl [1−048(S)−(−), (S)−(−)−N−{3−クロロ−1−(ピリジン−3−イル)−1H−ピラゾール−4−イル}−N−エチル−2−メチル−3−(メチルチオ)プロパンアミド] | ≥ 80%
66 | CCN(C(=O)C(C)CSC)c1cn(-c2cccnc2)nc1C(F)(F)F (stereo not drawn) [1−523] | ≥ 80%
67 | CCN(C(=O)CCC[S+](C)[O-])c1cn(-c2cccnc2)nc1Cl (stereo not drawn) [1−527] | ≥ 80%
68 | CCN(C(=O)C(=O)Nc1ccccc1)c1cn(-c2cccnc2)nc1Cl [1−464] | ≥ 80%
69 | CCSC(C)C(=Nc1cn(-c2cccnc2)nc1Cl)SC (stereo not drawn) [3−006, メチル N−3−クロロ−1−(ピリジン−3−イル)−1H−ピラゾール−4−イル−2−(エチルチオ)プロパンイミドチオエート] | ≥ 80%
70 | CCNC(=O)N(C)c1cn(-c2cccnc2)nc1Cl [1−551] | ≥ 80%
71 | CCNC(=S)Nc1cn(-c2cccnc2)nc1C [1−549] | ≥ 80%
72 | CCN(C(=O)NCC(F)(F)F)c1cn(-c2cccnc2)nc1Cl [1−501] | ≥ 80%
73 | CSCC(C)C(=O)Nc1cn(-c2cccnc2)nc1Cl (stereo not drawn) [1−074] | ≥ 80%
74 | CCN(C(N)=O)c1cn(-c2cccnc2)nc1Cl [1−572] | ≥ 80%
75 | CCNC(=O)NCC(=O)N(CC)c1cn(-c2cccnc2)nc1Cl [1−375] | ≥ 80%
76 | CC(C)NC(=S)Nc1cn(-c2cccnc2)nc1Cl [1−554] | ≥ 80%
77 | Cc1c(NC(=O)OC(C)(C)C)cnn1-c1cccnc1 [5−001, tert−ブチル 5−メチル−1−(ピリジン−3−イル)−1H−ピラゾール−4−イルカーバメート] | ≥ 80%
78 | C=CCNC(=O)N(CC)c1cn(-c2cccnc2)nc1Cl [1−595] | ≥ 80%
79 | C[C@H](CS(C)(=O)=O)C(=O)N(C)c1cn(-c2cccnc2)nc1Cl [1−054(S)−(+)] | ≥ 80%
80 | CCN(C(=O)C(C)CS(=O)(=O)N(C)C)c1cn(-c2cccnc2)nc1Cl (stereo not drawn) [1−596] | ≥ 80%

Same assay, conditions: 96 h, read-out: efficacy (number of insects with abnormal behaviour due to compound / number released × 100)

Row | SMILES | pest or weed control at 10 µg/cm2
81 | O=C(NCCCl)Nc1cn(-c2cccnc2)nc1Cl [1−593] | ≥ 80%
